This is an account of results in patent US8946420B2, “Neuromodulatory compounds” (Map Pharmaceuticals, Inc., priority 2011, dated 2015).

Test [1] concerns the target T1, Recombinant human serotonin 5-HT2A receptor (Homo sapiens, UniProt P28223).
T1 construct: expressed in transfected cells; host or cells: CHO-K1 cells co-expressing mitochondrial apoaequorin
The test is described as follows: Aequorin assay, receptor agonist/antagonist activity, CHO-K1 cells. The class given is cell-based. The procedure: (§1) Compound 5A was synthesized as described above and assayed for receptor activity against a panel of dopaminergic and serotoninergic receptors. Recombinant human receptors serotonin 5-HT2A, 5-HT2B were expressed in CHO-K1 cells and activity (receptor agonist/antagonist activity) was assayed using an Aequorin assay (coexpression of mitochondrial apoaequorin) and Compound 5a at a concentration of 0.10 nM to 20,000 nM for agonist activity and 0.005 nM to 10,000 nM for antagonist activity. […]. The preserved 5-HT2B antagonism activity is hypothesized to a decrease or minimized occurrence of fibrosis (cardiac and non-cardiac) as it is thought that 5-HT2B agonism is responsible for this undesirable side-effect in other iso-ergoline compounds. […]. A decreased agonist activity towards the D3 receptor by Compound 5a is likely to produce minimal or decreased hallucinogenic effects. […].

Test [2] addresses T2, Recombinant human serotonin 5-HT2B receptor (Homo sapiens, UniProt P41595).
T2 construct: expressed in transfected cells; host or cells: CHO-K1 cells co-expressing mitochondrial apoaequorin
The description is as above. The class given is cell-based. On the procedure:
as §1

Test [3] deals with Recombinant human dopaminergic receptor D3 (Homo sapiens, UniProt P35462). The test is described as follows: GTPγS functional assay. The class given is biochemical.
Sequence of Recombinant human dopaminergic receptor D3 (P35462 whole entry): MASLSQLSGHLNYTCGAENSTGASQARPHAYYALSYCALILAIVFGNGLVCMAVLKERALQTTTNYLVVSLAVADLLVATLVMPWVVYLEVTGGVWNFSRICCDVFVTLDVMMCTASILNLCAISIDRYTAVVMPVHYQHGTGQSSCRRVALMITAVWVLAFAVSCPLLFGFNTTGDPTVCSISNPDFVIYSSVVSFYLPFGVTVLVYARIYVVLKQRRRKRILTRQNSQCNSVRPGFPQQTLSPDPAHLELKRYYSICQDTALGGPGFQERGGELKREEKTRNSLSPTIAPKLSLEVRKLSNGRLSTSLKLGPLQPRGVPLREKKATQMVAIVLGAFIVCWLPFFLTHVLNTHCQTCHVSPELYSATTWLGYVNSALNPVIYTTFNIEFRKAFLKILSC
In test [4] the target is Recombinant human dopaminergic receptor D2L (Homo sapiens, UniProt P14416). The test is described as follows: GTPγS functional assay. The class given is biochemical. The note with it: in words.
Sequence of Recombinant human dopaminergic receptor D2L (P14416 whole entry): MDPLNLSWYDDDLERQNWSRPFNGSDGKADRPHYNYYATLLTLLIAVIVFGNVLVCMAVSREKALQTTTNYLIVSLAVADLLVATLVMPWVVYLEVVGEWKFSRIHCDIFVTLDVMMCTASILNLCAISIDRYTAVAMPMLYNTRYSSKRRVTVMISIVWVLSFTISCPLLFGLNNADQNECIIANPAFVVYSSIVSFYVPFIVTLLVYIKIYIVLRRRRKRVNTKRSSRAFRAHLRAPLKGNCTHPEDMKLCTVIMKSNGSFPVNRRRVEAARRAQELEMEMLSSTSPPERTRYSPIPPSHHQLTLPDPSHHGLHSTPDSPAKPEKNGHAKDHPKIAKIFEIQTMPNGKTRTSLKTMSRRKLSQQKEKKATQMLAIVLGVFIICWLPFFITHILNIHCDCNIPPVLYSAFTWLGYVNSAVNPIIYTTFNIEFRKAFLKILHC
The target in test [5] is T3, Recombinant human serotonin receptor 5-HT1A (Homo sapiens, UniProt P08908).
T3 sequence (P08908 1-422): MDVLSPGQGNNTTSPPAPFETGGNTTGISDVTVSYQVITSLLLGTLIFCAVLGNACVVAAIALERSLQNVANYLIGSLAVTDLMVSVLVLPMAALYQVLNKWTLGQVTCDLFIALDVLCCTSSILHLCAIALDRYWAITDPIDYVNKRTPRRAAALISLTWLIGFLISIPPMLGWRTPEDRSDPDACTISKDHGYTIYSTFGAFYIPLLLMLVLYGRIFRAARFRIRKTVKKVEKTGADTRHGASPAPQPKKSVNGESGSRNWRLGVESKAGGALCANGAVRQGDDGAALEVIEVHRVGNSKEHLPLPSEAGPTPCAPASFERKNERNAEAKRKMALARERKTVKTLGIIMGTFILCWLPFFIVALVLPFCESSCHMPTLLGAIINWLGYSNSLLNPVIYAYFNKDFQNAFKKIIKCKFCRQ
In words: GTPγS functional assay. It counts as biochemical. The note with it: in words.

The target of test [6] is Recombinant human serotonin receptor 5-HT1B (Homo sapiens, UniProt P28222). The test is described as follows: GTPγS functional assay. The conditions noted are these: read-out: 5-HT1B agonism, EC50. The class given is biochemical.
Sequence of Recombinant human serotonin receptor 5-HT1B (P28222 whole entry): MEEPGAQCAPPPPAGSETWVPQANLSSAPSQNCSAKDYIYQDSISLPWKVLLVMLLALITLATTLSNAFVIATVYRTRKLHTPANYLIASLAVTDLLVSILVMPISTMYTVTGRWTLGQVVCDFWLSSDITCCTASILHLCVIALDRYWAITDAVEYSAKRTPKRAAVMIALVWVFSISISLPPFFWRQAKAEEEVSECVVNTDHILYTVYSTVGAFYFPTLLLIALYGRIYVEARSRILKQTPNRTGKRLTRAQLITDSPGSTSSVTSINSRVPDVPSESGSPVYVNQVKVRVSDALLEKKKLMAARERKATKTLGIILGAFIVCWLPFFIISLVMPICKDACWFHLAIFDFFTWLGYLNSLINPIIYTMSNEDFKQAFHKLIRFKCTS
Test [7] deals with Recombinant human serotonin receptor 5-HT1D (Homo sapiens, UniProt P28221). In words: GTPγS functional assay. The class given is biochemical.
Sequence of Recombinant human serotonin receptor 5-HT1D (P28221 whole entry): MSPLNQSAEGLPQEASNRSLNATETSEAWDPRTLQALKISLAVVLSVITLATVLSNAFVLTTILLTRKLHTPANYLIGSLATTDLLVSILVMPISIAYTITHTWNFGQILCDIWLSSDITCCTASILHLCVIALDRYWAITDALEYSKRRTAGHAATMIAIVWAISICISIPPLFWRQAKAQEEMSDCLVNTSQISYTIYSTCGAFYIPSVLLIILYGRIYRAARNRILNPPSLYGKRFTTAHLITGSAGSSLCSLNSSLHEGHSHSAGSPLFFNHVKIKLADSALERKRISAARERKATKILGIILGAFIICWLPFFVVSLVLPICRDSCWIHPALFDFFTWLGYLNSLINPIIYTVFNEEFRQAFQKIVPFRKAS

The structures appear in SMILES notation.

T2 sequence (P41595 whole entry): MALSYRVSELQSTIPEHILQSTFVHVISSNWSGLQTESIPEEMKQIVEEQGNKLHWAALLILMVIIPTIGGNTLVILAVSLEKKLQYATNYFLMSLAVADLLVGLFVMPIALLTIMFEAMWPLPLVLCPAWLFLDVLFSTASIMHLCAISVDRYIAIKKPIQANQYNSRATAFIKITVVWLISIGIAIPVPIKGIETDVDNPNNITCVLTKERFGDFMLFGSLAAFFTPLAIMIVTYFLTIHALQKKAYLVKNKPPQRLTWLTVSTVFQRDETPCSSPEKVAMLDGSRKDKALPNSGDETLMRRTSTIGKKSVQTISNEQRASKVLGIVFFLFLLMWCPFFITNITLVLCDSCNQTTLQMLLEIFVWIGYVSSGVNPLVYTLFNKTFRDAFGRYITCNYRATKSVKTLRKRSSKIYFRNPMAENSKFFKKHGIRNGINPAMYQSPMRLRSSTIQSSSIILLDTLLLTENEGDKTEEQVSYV
T1 sequence (P28223 whole entry): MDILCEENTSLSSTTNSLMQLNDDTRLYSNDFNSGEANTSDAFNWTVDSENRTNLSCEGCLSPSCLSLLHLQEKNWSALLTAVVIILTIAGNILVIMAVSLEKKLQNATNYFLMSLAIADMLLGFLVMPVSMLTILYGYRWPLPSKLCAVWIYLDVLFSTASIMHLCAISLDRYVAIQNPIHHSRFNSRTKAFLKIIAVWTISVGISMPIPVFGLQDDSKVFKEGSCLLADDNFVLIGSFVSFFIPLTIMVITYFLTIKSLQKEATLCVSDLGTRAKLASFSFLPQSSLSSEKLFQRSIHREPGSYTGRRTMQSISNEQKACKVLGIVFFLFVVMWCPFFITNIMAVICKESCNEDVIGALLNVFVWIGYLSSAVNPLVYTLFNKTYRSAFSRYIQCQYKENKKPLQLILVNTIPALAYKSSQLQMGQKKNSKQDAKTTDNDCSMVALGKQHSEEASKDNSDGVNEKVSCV

For the compound `CN1C[C@@H](NC(=O)N(CC(F)(F)F)CC(F)(F)F)C=C2c3cccc4[nH]cc(c34)C[C@H]21` [Compound 5A], the half-maximal effective concentration (EC50) (as a rule, the concentration giving half of the maximal effect) in test [1] (agonist mode, 0.10 nM to 20,000 nM) turned out to be 5020 nM; in test [3] (0.005 nM to 10,000 nM, read-out: agonist activity towards the dopaminergic D3 receptor, EC50) it was 27 nM; in test [6], 287 nM; in test [7] (read-out: 5-HT1D agonism, EC50), 15 nM. In addition, the “5-HT2A receptor agonist activity” value in test [1] (in words, compared to lisuride) is listed as “weak 5-HT2A receptor agonist activity”. Further, the IC50 in test [2] (antagonist mode, 0.005 nM to 10,000 nM, read-out: 5-HT2B antagonism activity, 1050) turned out to be 190 nM. Also, in test [2] (in words), the 5-HT2B receptor activity is on record as 5-HT2B antagonist. Also, the “dopaminergic receptor D3 agonism” value in test [3] (in words, compared to lisuride) is given as “weaker dopaminergic receptor D3agonism”. The “D2L agonist activity (Emax) compared to lisuride” value in test [4] is recorded as “comparable D2L agonist activity (Emax)”. Besides, the “agonistic activity towards the 5-HT1A receptor” value in test [5] is listed as “weak/moderate agonistic activity”. Further, in test [7] (ratio of EC50 values), the “selectivity for 5-HT1D to 5-HT1B” value is listed as 20 fold.
